Patent publication US20080051429A1, “USE OF 4-AMINO-PIPERIDINES FOR TREATING SLEEP DISORDERS” (priority 2006, published 2008)

Experiments:
5-HT4 = target: T1, 5-HT4 (Homo sapiens, UniProt Q13639); assay: R-SAT broad profiling; format: cell-based; details: read-out: pEC50/pIC50 (converted)
T1 construct: expressed in transfected cells
Protocol: (§1) The functional receptor assay, Receptor Selection and Amplification Technology (R-SAT), was used (with minor modifications from that previously described U.S. Pat. No. 5,707,798) to screen compounds for efficacy at the 5-HT2A receptor. Briefly, NIH3T3 cells were grown in 96 well tissue culture plates to 70-80% confluence. Cells were transfected for 12-16 hours with plasmid DNAs using superfect (Qiagen Inc.) as per manufacture's protocols. R-SAT's were generally performed with 50 ng/well of receptor and 20 ng/well of Beta-galactosidase plasmid DNA. All receptor and G-protein constructs used were in the pSI mammalian expression vector (Promega Inc) as described in U.S. Pat. No. 5,707,798. The 5HT2A receptor gene was amplified by nested PCR from brain cDNA using the oligodeoxynucleotides based on the published sequence (see Saltzman et. al. Biochem. Biophys. Res. Comm. 181:1469-78 (1991)). Large-scale transfections, cells were transfected for 12-16 hours, then trypsinized and frozen in DMSO. Frozen cells were later thawed, plated at 10,000-40,000 cells per well of a 96 well plate that contained drug. With both methods, cells were then grown in a humidified atmosphere with 5% ambient CO2 for five days. Media was then removed from the plates and marker gene activity was measured by the addition of the beta-galactosidase substrate ONPG (in PBS with 5% NP-40). The resulting colorimetric reaction was measured in a spectrophotometric plate reader (Titertek Inc.)at […]. All data were analyzed using the computer program XLFit (IDBSm). Efficacy is the percent maximal repression compared to repression by a control compound (ritanserin in the case of 5HT2A). pIC50 is the negative of the log(IC50), where IC50 is the calculated concentration in Molar that produces 50% maximal repression.
(§2) The R-SAT assay (described above in example 136) was used to investigate the selectivity of 2-(4-Methoxyphenyl)-N-(4-methylbenzyl)-N-(1-methylpiperidin-4-yl)acetamide hydrochloride.

CCK-A = target: T2, CCK-A (Homo sapiens, UniProt P32238); assay: R-SAT broad profiling; format: cell-based; details: agonist; read-out: pEC50/pIC50 (converted)
T2 construct: expressed in transfected cells; host or cells: NIH3T3
T2 sequence (P32238 whole entry): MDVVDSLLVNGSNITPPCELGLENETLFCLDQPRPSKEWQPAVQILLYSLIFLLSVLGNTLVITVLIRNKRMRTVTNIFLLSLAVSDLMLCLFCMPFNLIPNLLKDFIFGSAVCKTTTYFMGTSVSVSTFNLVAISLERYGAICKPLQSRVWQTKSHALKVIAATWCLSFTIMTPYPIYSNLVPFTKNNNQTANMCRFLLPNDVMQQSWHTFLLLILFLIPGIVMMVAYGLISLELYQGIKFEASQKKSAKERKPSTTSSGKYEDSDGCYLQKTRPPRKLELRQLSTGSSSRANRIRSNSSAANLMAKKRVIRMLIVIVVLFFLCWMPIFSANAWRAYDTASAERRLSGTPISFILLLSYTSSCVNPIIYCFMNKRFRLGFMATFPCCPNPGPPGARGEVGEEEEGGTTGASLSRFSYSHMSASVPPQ
Protocol: as §1, §2

Histamine 3 = target: T3, Histamine 3 (Homo sapiens, UniProt Q9Y5N1); assay: R-SAT broad profiling; format: cell-based; details: read-out: pEC50/pIC50 (converted)
T3 construct: expressed in transfected cells; host or cells: NIH3T3
T3 sequence (Q9Y5N1 whole entry): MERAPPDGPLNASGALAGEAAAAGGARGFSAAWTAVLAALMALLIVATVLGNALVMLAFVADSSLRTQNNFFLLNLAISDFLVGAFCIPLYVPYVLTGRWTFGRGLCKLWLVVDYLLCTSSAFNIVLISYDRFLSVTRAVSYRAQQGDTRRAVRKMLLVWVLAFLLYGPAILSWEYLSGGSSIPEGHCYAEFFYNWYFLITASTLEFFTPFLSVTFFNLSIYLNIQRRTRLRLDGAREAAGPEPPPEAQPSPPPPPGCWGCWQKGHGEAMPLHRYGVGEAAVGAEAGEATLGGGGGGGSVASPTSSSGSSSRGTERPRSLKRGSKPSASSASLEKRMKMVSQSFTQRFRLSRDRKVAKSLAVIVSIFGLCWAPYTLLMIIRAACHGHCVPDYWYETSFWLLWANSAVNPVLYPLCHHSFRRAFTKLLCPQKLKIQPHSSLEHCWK
Protocol: as §1, §2

K-opiod = target: T4, K-opiod (Homo sapiens, UniProt P41145); assay: R-SAT broad profiling; format: cell-based; details: agonist; read-out: pEC50/pIC50 (converted)
T4 construct: expressed in transfected cells; host or cells: NIH3T3
T4 sequence (P41145 whole entry): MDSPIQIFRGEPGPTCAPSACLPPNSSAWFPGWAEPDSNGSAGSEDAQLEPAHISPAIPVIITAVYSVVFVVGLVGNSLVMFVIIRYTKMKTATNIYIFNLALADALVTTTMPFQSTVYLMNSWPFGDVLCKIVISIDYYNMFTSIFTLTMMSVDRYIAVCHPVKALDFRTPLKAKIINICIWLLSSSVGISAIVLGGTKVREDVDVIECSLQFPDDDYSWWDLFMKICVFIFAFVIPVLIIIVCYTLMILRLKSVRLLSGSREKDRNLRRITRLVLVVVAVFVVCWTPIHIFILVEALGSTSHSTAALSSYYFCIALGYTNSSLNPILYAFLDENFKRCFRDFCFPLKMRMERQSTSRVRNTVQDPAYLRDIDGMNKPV
Protocol: as §1, §2

alpha 2B = target: T5, alpha 2B (Homo sapiens, UniProt P18089); assay: R-SAT broad profiling; format: cell-based; details: read-out: pEC50/pIC50 (converted)
T5 construct: expressed in transfected cells; host or cells: NIH3T3
T5 sequence (P18089 1-450): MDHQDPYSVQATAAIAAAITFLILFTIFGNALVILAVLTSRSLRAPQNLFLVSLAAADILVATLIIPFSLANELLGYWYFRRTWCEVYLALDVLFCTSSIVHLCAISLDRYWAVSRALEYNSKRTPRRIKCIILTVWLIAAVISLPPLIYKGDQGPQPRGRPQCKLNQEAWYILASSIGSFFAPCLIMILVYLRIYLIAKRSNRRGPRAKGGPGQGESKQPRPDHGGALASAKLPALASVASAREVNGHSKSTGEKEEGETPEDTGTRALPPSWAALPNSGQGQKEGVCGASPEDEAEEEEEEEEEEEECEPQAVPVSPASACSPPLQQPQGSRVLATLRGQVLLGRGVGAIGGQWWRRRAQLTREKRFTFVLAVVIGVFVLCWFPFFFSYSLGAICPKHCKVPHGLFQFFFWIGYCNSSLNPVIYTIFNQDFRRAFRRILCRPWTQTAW
Protocol: as §1, §2

alpha 2C = target: T6, alpha 2C (Homo sapiens, UniProt P18825); assay: R-SAT broad profiling; format: cell-based; details: read-out: pEC50/pIC50 (converted)
T6 construct: expressed in transfected cells; host or cells: NIH3T3
T6 sequence (P18825 1-462): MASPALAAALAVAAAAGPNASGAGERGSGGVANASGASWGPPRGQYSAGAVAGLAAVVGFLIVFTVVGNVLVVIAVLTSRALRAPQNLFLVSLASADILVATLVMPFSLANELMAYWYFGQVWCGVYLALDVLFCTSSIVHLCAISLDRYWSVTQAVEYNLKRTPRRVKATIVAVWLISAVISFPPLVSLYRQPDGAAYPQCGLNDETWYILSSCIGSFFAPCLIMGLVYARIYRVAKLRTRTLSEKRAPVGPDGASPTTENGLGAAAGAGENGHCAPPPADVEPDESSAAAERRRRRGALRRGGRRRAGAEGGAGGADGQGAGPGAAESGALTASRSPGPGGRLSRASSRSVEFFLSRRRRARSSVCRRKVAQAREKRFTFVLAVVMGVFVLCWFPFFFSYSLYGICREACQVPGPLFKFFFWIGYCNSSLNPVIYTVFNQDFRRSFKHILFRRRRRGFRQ
Protocol: as §1, §2

alpha-1A(a/c) = target: T7, alpha-1A(a/c) (Homo sapiens, UniProt P35348); assay: R-SAT broad profiling; format: cell-based; details: read-out: pEC50/pIC50 (converted)
T7 construct: expressed in transfected cells; host or cells: NIH3T3
T7 sequence (P35348 whole entry): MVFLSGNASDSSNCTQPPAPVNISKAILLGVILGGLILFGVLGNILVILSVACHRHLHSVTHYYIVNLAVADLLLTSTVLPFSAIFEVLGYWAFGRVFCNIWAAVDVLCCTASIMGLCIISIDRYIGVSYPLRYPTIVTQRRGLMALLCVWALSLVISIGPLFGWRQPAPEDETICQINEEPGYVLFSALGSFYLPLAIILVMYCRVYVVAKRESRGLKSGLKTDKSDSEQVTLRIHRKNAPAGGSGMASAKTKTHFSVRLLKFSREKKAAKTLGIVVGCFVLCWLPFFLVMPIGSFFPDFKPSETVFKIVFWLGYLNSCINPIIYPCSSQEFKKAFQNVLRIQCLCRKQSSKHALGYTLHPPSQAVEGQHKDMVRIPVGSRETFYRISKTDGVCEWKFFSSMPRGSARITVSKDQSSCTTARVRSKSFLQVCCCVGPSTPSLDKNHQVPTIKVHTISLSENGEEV
Protocol: as §1, §2

endothelinB = target: T8, endothelinB (Homo sapiens, UniProt P24530); assay: R-SAT broad profiling; format: cell-based; details: agonist; read-out: pEC50/pIC50 (converted)
T8 construct: expressed in transfected cells; host or cells: NIH3T3
T8 sequence (P24530 27-442): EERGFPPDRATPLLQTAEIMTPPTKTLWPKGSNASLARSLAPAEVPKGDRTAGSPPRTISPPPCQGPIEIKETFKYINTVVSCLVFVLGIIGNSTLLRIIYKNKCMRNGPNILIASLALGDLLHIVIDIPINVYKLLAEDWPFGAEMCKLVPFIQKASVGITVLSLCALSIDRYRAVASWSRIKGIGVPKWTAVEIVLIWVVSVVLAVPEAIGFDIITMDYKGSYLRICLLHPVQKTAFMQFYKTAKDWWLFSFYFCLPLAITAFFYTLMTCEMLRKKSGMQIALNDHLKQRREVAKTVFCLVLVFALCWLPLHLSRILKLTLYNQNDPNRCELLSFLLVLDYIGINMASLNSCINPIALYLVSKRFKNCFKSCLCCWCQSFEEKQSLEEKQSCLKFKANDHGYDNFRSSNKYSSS
Protocol: as §1, §2

D2 = D2 (Homo sapiens, UniProt P14416); assay: R-SAT broad profiling; format: cell-based; design: expressed in transfected cells; host or cells: NIH3T3; details: read-out: pEC50/pIC50 (converted)
Sequence of D2 (P14416 whole entry): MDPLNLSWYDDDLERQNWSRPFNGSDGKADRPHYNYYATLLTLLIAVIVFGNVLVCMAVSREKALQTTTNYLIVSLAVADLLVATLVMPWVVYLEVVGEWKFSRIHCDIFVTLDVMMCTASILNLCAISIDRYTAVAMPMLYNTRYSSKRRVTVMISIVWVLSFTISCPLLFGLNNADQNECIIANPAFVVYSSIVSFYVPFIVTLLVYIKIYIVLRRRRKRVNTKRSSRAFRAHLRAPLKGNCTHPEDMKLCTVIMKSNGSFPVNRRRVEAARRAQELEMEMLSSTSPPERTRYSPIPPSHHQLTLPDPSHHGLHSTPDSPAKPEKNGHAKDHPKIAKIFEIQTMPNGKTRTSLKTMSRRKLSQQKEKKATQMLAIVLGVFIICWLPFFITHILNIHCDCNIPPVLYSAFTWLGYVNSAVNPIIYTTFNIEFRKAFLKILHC
Protocol: as §1, with “Frozen cells were later thawed, plated at 10,000-40,000 cells per well of a 96 well plate that contained drug. With both methods, cells were then grown in a humidified atmosphere with 5% ambient CO2 for five days.” left out, “Efficacy is the percent maximal repression compared to repression by a control compound (ritanserin in the case of 5HT2A). pIC50 is the negative of the log(IC50), where IC50 is the calculated concentration in Molar that produces 50% maximal repression.” left out

Plasma levels (LC/MS/MS) = format: in vivo, human; details: after 13 days; for plasma concentration, Mean: n = 9
Protocol: Plasma Levels: Blood samples were collected into Vacutainer® (dry sodium heparin, green top tube, 6 mL capacity) on Day −1 and again on Day 14 (pre-dose). The time interval between blood collection and freezing of the plasma was no longer than 45 minutes. Within 45 minutes of collection, the plasma fractions were separated by centrifugation at 3,000 rotations per minutes for 10 minutes. The plasma fractions were divided and transferred into two properly labeled storage tubes and frozen at approximately −70° C. Plasma samples were evaluated for N-(1-methylpiperidin-4-yl)-N-(4-fluorophenylmethyl)-N′-(4-(2-methylpropyloxy)phenylmethyl)carbamide using a validated high performance liquid chromatography/tandem mass spectrometric (LC/MS/MS) assay.

T1 sequence (Q13639 1-387 isoform Q13639-2, species assumed): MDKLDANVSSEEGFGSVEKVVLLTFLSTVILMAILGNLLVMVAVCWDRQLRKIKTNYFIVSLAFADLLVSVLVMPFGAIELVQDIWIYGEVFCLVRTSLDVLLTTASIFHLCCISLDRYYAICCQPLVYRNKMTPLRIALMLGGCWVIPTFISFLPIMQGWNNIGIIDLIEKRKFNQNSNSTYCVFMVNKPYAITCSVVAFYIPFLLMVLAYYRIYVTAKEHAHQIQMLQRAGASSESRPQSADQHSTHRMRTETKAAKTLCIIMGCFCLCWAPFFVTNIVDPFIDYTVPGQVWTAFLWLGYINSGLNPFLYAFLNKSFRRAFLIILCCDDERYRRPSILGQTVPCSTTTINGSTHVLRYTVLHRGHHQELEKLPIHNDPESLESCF

With `COc1ccc(CC(=O)N(Cc2ccc(C)cc2)C2CCN(C)CC2)cc1` [Example 50ELH27, 2-(4-Methoxyphenyl)-N-(4-methylbenzyl)-N-(1-methylpiperidin-4-yl)acetamide] as the molecule, how does the EC50 (5-HT4; agonist) read?
Its EC50 is greater than 3.16 µM.

What about the IC50 (5-HT4; inverse agonist) of the same molecule?
Its IC50 is greater than 3.16 µM.

And the EC50 (CCK-A)?
The EC50 was greater than 3.16 µM.

What about the EC50 (Histamine 3; agonist) of the same molecule?
The EC50 was greater than 3.16 µM.

And the IC50 (Histamine 3; antagonist)?
Its IC50 is greater than 3.16 µM.

What about the EC50 (K-opiod) of the same molecule?
Its EC50 is greater than 3.16 µM.

What about the EC50 (alpha 2B; agonist) of the same molecule?
The EC50 was greater than 3.16 µM.

What about the IC50 (alpha 2B; antagonist) of the same molecule?
Its IC50 is greater than 3.16 µM.

What about the EC50 (alpha 2C; agonist) of the same molecule?
The EC50 was greater than 3.16 µM.

What about the IC50 (alpha 2C; antagonist) of the same molecule?
The IC50 was greater than 3.16 µM.

And the EC50 (alpha-1A(a/c); agonist)?
Its EC50 is greater than 3.16 µM.

What about the IC50 (alpha-1A(a/c); antagonist) of the same molecule?
Its IC50 is greater than 3.16 µM.

What about the EC50 (endothelinB) of the same molecule?
Its EC50 is greater than 3.16 µM.

And the EC50 (D2; agonist)?
The EC50 was greater than 3.16 µM.

What about the IC50 (D2; antagonist) of the same molecule?
The IC50 was greater than 3.16 µM.

What does the source list for `CC(C)COc1ccc(CNC(=O)N(Cc2ccc(F)cc2)C2CCN(C)CC2)cc1` [N-(1-methylpiperidin-4-yl)-N-(4-fluorophenylmethyl)-N′-(4-(2-methylpropyloxy)phenylmethyl)carbamide]?
plasma concentration, Maximum (Plasma levels (LC/MS/MS); 1 mg once daily): 2.33 ng/mL; plasma concentration, Median (Plasma levels (LC/MS/MS); 1 mg once daily): 1.750 ng/mL; plasma concentration, Minimum (Plasma levels (LC/MS/MS); 1 mg once daily): 0.92 ng/mL; plasma concentration, Mean (Plasma levels (LC/MS/MS); 1 mg once daily): 1.628 ng/mL; plasma concentration, Maximum (Plasma levels (LC/MS/MS); 2.5 mg once daily): 5.55 ng/mL; plasma concentration, Median (Plasma levels (LC/MS/MS); 2.5 mg once daily): 3.360 ng/mL; plasma concentration, Minimum (Plasma levels (LC/MS/MS); 2.5 mg once daily): 2.07 ng/mL; plasma concentration, Mean (Plasma levels (LC/MS/MS); 2.5 mg once daily): 3.647 ng/mL; plasma concentration, Maximum (Plasma levels (LC/MS/MS); 5 mg once daily): 13.00 ng/mL; plasma concentration, Median (Plasma levels (LC/MS/MS); 5 mg once daily): 8.720 ng/mL; plasma concentration, Minimum (Plasma levels (LC/MS/MS); 5 mg once daily): 5.91 ng/mL; plasma concentration, Mean (Plasma levels (LC/MS/MS); 5 mg once daily): 8.516 ng/mL; plasma concentration, Maximum (Plasma levels (LC/MS/MS); 20 mg once daily): 52.70 ng/mL; plasma concentration, Median (Plasma levels (LC/MS/MS); 20 mg once daily): 34.100 ng/mL; plasma concentration, Minimum (Plasma levels (LC/MS/MS); 20 mg once daily): 21.90 ng/mL; plasma concentration, Mean (Plasma levels (LC/MS/MS); 20 mg once daily): 35.033 ng/mL
